For orientation: Ki means a measure of affinity in units of concentration, obtained from inhibition or displacement.

Chain of human IRAK4 (Q9NWZ3 whole entry, the tested form may be a part): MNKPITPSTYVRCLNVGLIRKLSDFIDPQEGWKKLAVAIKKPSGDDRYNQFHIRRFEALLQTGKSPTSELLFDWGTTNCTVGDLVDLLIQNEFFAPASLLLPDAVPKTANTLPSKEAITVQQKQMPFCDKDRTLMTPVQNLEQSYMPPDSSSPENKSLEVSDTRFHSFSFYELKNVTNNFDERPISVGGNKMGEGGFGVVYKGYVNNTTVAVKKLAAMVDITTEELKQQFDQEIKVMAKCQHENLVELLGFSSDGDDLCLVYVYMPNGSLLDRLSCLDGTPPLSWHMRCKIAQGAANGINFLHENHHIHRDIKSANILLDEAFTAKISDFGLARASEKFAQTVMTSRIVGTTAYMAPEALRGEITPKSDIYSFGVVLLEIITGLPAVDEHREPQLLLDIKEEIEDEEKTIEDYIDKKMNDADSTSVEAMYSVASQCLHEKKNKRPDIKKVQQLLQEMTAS

This assay concerns the target human IRAK4 (Homo sapiens (Human), UniProt Q9NWZ3). Description: IRAK4 kinase inhibition, Transcreener fluorescence polarization ADP assay. The assay is classed as biochemical. Conditions: recombinant full-length His6-IRAK4; 125 uM ATP; 90 min; Ki computed using ATP Km 642 uM. On the procedure:
Compounds were assayed for inhibition of human IRAK4 and IRAK1 catalytic activity using recombinant enzyme produced from insect cells. Full-length IRAK4 protein, carrying an N-terminal His6-Tag, was obtained from Life Technologies (Carlsbad, Calif., USA). The IRAK1 construct was produced internally and was comprised of IRAK1 residues Arg194 to Ser712, preceded by an NH2-terminal His6 tag and the coding sequence for glutathione-S-transferase.
As to `C[C@@]1(CO)Cc2cc(NC(=O)c3cnn4cccnc34)c(N3CCC4(CC3)CNC(=O)C4)cc2O1` [Example 418, (S)-N-(2-(hydroxymethyl)-2-methyl-6-(3-oxo-2,8-diazaspiro[4.5]decan-8-yl)-2,3-dihydrobenzofuran-5-yl)pyrazolo[1,5-a]pyrimidine-3-carboxamide], the inhibition constant Ki is 0.0048 µM. The same measure for `C[C@@]1(CO)Cc2cc(NC(=O)c3cnn4cccnc34)c(N3Cc4cccnc4C3)cc2O1` [Example 420, (S)-N-(6-(5,7-dihydro-6H-pyrrolo[3,4-b]pyridin-6-yl)-2-(hydroxymethyl)-2-methyl-2,3-dihydrobenzofuran-5-yl)pyrazolo[1,5-a]pyrimidine-3-carboxamide]: 0.014 µM. The same measure for `C[C@@]1(O)COc2cc(N3CCC([C@](C)(O)C(F)(F)F)CC3)c(NC(=O)c3cnn4cccnc34)cc2C1` [Example 421, N—((S)-3-hydroxy-3-methyl-7-(4-((S)-1,1,1-trifluoro-2-hydroxypropan-2-yl)piperidin-1-yl)chroman-6-yl)pyrazolo[1,5-a]pyrimidine-3-carboxamide]: 0.1 µM; for `CC1(O)COc2cc(N3CCC(C(C)(O)C(F)(F)F)CC3)c(NC(=O)c3cnn4cccnc34)cc2C1` (stereo not drawn) [Example 423, N-(3-hydroxy-3-methyl-7-(4-(1,1,1-trifluoro-2-hydroxypropan-2-yl)piperidin-1-yl)chroman-6-yl)pyrazolo[1,5-a]pyrimidine-3-carboxamide]: 0.0096 µM. On to `C[C@]1(O)COc2cc(N3CCN(CC(N)=O)CC3)c(NC(=O)c3cnn4cccnc34)cc2C1` [Example 424, (R)-N-(7-(4-(2-amino-2-oxoethyl)piperazin-1-yl)-3-hydroxy-3-methylchroman-6-yl)pyrazolo[1,5-a]pyrimidine-3-carboxamide], for which the Ki stood at 0.003 µM. `C[C@@]1(O)COc2cc(N3CCN(CC(N)=O)CC3)c(NC(=O)c3cnn4cccnc34)cc2C1` [Example 425, (S)-N-(7-(4-(2-amino-2-oxoethyl)piperazin-1-yl)-3-hydroxy-3-methylchroman-6-yl)pyrazolo[1,5-a]pyrimidine-3-carboxamide]: the inhibition constant (Ki) was determined as 0.006 µM. The same measure for `C[C@]1(O)COc2cc(N3CCC(C#N)CC3)c(NC(=O)c3cnn4cccnc34)cc2C1` [Example 426, (R)-N-(7-(4-cyanopiperidin-1-yl)-3-hydroxy-3-methylchroman-6-yl)pyrazolo[1,5-a]pyrimidine-3-carboxamide]: 0.005 µM; for `C[C@@]1(O)COc2cc(N3CCC(C#N)CC3)c(NC(=O)c3cnn4cccnc34)cc2C1` [Example 427, (S)-N-(7-(4-cyanopiperidin-1-yl)-3-hydroxy-3-methylchroman-6-yl)pyrazolo[1,5-a]pyrimidine-3-carboxamide]: 0.038 µM; for `C[C@]1(O)COc2cc(N3CCC(n4ccnc4)CC3)c(NC(=O)c3cnn4cccnc34)cc2C1` [Example 428, (R)-N-(7-(4-(1H-imidazol-1-yl)piperidin-1-yl)-3-hydroxy-3-methylchroman-6-yl)pyrazolo[1,5-a]pyrimidine-3-carboxamide]: 0.075 µM. Under `C[C@@]1(O)COc2cc(N3CCC(n4ccnc4)CC3)c(NC(=O)c3cnn4cccnc34)cc2C1` [Example 429, (S)-N-(7-(4-(1H-imidazol-1-yl)piperidin-1-yl)-3-hydroxy-3-methylchroman-6-yl)pyrazolo[1,5-a]pyrimidine-3-carboxamide] stands 0.012 µM; under `Cn1cc(COc2cc3c(cc2NC(=O)c2cnn4cccnc24)C[C@](C)(O)CO3)cn1` [Example 431, (S)-N-(3-hydroxy-3-methyl-7-((1-methyl-1H-pyrazol-4-yl)methoxy)chroman-6-yl)pyrazolo[1,5-a]pyrimidine-3-carboxamide], 0.02 µM; under `CC(C)(O)CN1CCN(c2cc3c(cc2NC(=O)c2cnn4cccnc24)CC(C)(C)O3)CC1` [Example 434, N-(6-(4-(2-hydroxy-2-methylpropyl)piperazin-1-yl)-2,2-dimethyl-2,3-dihydrobenzofuran-5-yl)pyrazolo[1,5-a]pyrimidine-3-carboxamide], 0.022 µM. Under `CCC(O)(CC)CN1CCN(c2cc3c(cc2NC(=O)c2cnn4cccnc24)CC(C)(C)O3)CC1` [Example 435, N-(6-(4-(2-Ethyl-2-hydroxybutyl)piperazin-1-yl)-2,2-dimethyl-2,3-dihydrobenzofuran-5-yl)pyrazolo[1,5-a]pyrimidine-3-carboxamide] stands 0.053 µM.

With `CN(C)C(=O)[C@]1(C)Cc2cc(NC(=O)c3cnn4cccnc34)c(N3CCOCC3)cc2O1` [Example 438, (S)—N-(2-(dimethylcarbamoyl)-2-methyl-6-morpholino-2,3-dihydrobenzofuran-5-yl)pyrazolo[1,5-a]pyrimidine-3-carboxamide], the inhibition constant Ki is 0.055 µM. Regarding `CN(C)C(=O)[C@@]1(C)Cc2cc(NC(=O)c3cnn4cccnc34)c(N3CCOCC3)cc2O1` [Example 439, (R)—N-(2-(dimethylcarbamoyl)-2-methyl-6-morpholino-2,3-dihydrobenzofuran-5-yl)pyrazolo[1,5-a]pyrimidine-3-carboxamide], the Ki was 0.034 µM. Take `CC1(C)Cc2cc(NC(=O)c3cnn4cccnc34)c(N3CCN(CC(=O)NCC4CCCO4)CC3)cc2O1` (stereo not drawn) [Example 440, N-(2,2-dimethyl-6-(4-(2-oxo-2-(((tetrahydrofuran-2-yl)methyl)amino)ethyl)piperazin-1-yl)-2,3-dihydrobenzofuran-5-yl)pyrazolo[1,5-a]pyrimidine-3-carboxamide]: the Ki is 0.053 µM. The same measure for `CC1(C)Cc2cc(NC(=O)c3cnn4cccnc34)c(N3CCN4CCC[C@H]4C3)cc2O1` [Example 442, (S)-N-(6-(hexahydropyrrolo[1,2-a]pyrazin-2(1H)-yl)-2,2-dimethyl-2,3-dihydrobenzofuran-5-yl)pyrazolo[1,5-a]pyrimidine-3-carboxamide]: 0.096 µM. The same measure for `CC1(C)Cc2cc(NC(=O)c3cnn4cccnc34)c(N3CCN4CCC[C@@H]4C3)cc2O1` [Example 443, (R)-N-(6-(hexahydropyrrolo[1,2-a]pyrazin-2(1H)-yl)-2,2-dimethyl-2,3-dihydrobenzofuran-5-yl)pyrazolo[1,5-a]pyrimidine-3-carboxamide]: 0.038 µM. The same measure for `CSCC[C@@]1(C)Cc2cc(NC(=O)c3cnn4cccnc34)c(N3CCOCC3)cc2O1` [Example 444, (R)—N-(2-methyl-2-(2-(methylthio)ethyl)-6-morpholino-2,3-dihydrobenzofuran-5-yl)pyrazolo[1,5-a]pyrimidine-3-carboxamide]: 0.0028 µM; for `CC1(C)Cc2cc(NC(=O)c3cnn4cccnc34)c(O[C@@H]3CCN(CC(N)=O)C3)cc2O1` [Example 445, (R)—N-(6-((1-(2-amino-2-oxoethyl)pyrrolidin-3-yl)oxy)-2,2-dimethyl-2,3-dihydrobenzofuran-5-yl)pyrazolo[1,5-a]pyrimidine-3-carboxamide]: 0.0033 µM; for `CC1(C)Cc2cc(NC(=O)c3cnn4cccnc34)c(OC3CN(CCO)C3)cc2O1` [Example 446, N-(6-((1-(2-hydroxyethyl)azetidin-3-yl)oxy)-2,2-dimethyl-2,3-dihydrobenzofuran-5-yl)pyrazolo[1,5-a]pyrimidine-3-carboxamide]: 0.052 µM.
